The text below walks through data of patent publication US20100280098A1, “RECEPTOR TARGETED OLIGONUCLEOTIDES” (priority 2007, published 2010).

For data set [1], the system named is A375SM-Luc705-B cells. Kind of data set: Luciferase splice-correction assay with peptide-oligonucleotide conjugates. It is filed as cell-based. As to conditions: for luciferase expression: dose-response and mismatch control studies, luciferase after 48 h. Here is the method: Cell Lines and Plasmids: A375SM melanoma cells were obtained from Dr. J. Bear (University of North Carolina, Chapel Hill, N.C., United States of America), and were cultured in Dulbecco's minimum essential medium (DMEM; Invitrogen, Carlsbad, Calif., United States of America) supplemented with L-glutamine and 10% fetal bovine serum (FBS). Plasmid pLuc/705, containing an aberrant intron inserted into the firefly luciferase coding sequence, was obtained from Dr. R. Kole (University of North Carolina, Chapel Hill, N.C., United States of America). See Kang et al. (1998) Biochemistry, 37, 6235-6239. Stable transfectants were obtained by cotransfecting A375SM cells with one part of hygromycin resistant plasmid pcDNA3.1(+)/hygro (Invitrogen, Carlsbad, Calif., United States of America) and ten parts of pLuc/705 using LIPOFECTAMINE™ 2000 (Invitrogen, Carlsbad, Calif., United States of America) as per manufacturer's instructions. Selection was carried out in DMEM containing 200 μg/mL hygromycin and 10% FBS. The resulting pool of hygromycin resistant cells was referred to as A375SM-Luc705-B.
Oligonucleotide treatment and luciferase assay: A375SM-Luc705-B cells were plated on 12 well plates (at 1.0 or 1.5×10^5 cells per well in various experiments) in DMEM supplemented with 10% FBS. The following day, medium was changed to reduced serum OPTI-MEM I (Invitrogen, Carlsbad, Calif., United States of America). […] Four hours after treatment, 1% FBS was added to each well. Twenty four hours after oligonucleotide treatment, medium was replaced with DMEM containing 1% FBS, and at various times thereafter cell lysates were collected for luciferase assay.
Cells were usually harvested 48 hours after oligonucleotide treatment, or at times indicated in the figures, and activity determined using a Luciferase assay kit (Promega, Madison, Wis., United States of America). Measurements were performed on a Monolight 2010 instrument (Analytical Luminescence Laboratory, San Diego, Calif., United States of America).

The subject of data set [2] is A375SM-Luc705-B cells. Kind of data set: Luciferase splice-correction assay with albumin conjugates. It is filed as cell-based. As for the experimental part: Oligonucleotide Treatment of Cells and Luciferase Assay: A375SM-Luc705-B cells were seeded onto 12 well plates at 1×10^5 cells per well in medium containing 10% FBS. […] After 4 h of treatment, FBS was added to each well to 1%. After 24 h, cells were washed with DMEM medium containing 10% FBS and incubated in DMEM supplemented with 1% FBS for 48 h prior to harvest.

Data set [3] concerns A375SM-Luc705-B cells. Put plainly: Subcellular distribution and co-localization by confocal fluorescence microscopy (peptide conjugate). The following applies: for co-localization with dextran / co-localization with transferrin: 2 h; for co-localization with dextran / co-localization with transferrin / co-localization with transferrin or dextran markers: live cells, 100 nM; for co-localization with transferrin or dextran markers: 24 h. It is filed as cell-based. From the text:
(§1) Cell Uptake, Confocal Fluorescence Microscopy, and Flow Cytometry: Total cellular uptake of Tamra-labeled oligonucleotides was monitored using a Nanodrop microfluorimeter (Nanodrop Technologies, Wilmington, Del., United States of America). After treatment with oligonucleotides the cells were lysed in a mild non-ionic detergent buffer and the Tamra fluorescence (emission 583 nm) was quantitated based on a linear standard curve of unconjugated Tamra in buffer. Intracellular distribution of Tamra-labeled oligonucleotides was examined using an Olympus Confocal FV300 fluorescent microscope (Olympus America Inc., Center Valley, Pa., United States of America) with 60X-oil immersion objective, as previously described. See Astriab-Fisher et al. (2004) Biochem. Pharmacol., 68, 403-407. Expression levels of αvβ3 were monitored by immunostaining with an anti-human-αvβ3 monoclonal (Chemicon, Temecula, Calif., United States of America) followed by an Alexa 488 rabbit antimouse secondary antibody, with analysis by flow cytometry using a DakoCytomation (Glostrop, Denmark) machine.

Data set [4] relates to A375SM-Luc705-B cells. Put plainly: Total cellular accumulation of albumin conjugates (fluorimeter). It is filed as cell-based. The following applies: nontoxic concentrations, 30 min prior to 100 nM conjugate, 4 h. As for the experimental part: Cellular Uptake and Confocal Microscopy: Cells were seeded onto either 12 well plates at 1×10^5 cells per well for cellular uptake measurements or in 12 well glass-bottom plates at 2×10^4 cells per well for live cell analysis by confocal microscopy. […], the cells were either lysed for measurement of Tamra fluorescence using a Nanodrop microfluorimeter (Nanodrop Technologies, Wilmington, Deleware, United States of America) or washed with DMEM containing 10% FBS and then placed in DMEM without phenol red, supplemented with 1% FBS, for confocal microscopy analysis. Co-localization of Tamra-labeled oligonucleotides with Alexa 488 labeled Transferrin or Dextran (Molecular Probes, Beaverton, Oreg., United States of America) in live cell was also examined by confocal microscopy. An Olympus confocal microscope with a 60× objective lens was used, and the data were processed using Fluoview software (Olympus, Center Valley, Pa., United States of America) as described in Example 1.

For data set [5], the system named is A375SM-Luc705-B cells. Put plainly: Total cellular uptake of Tamra-labeled oligonucleotides (microfluorimeter). It is filed as cell-based. As to conditions: for cell viability: 1-10 mM β-cyclodextrin, 0.2-20 μM cytochalasin D; for effect on uptake of the RGD-oligonucleotide conjugate: inhibitor 15 min before 100 nM RGD-623-Tamra, uptake after 4 h.
From the text: as §1

The test system of data set [6] is αvβ3-negative M21− human melanoma cells. Put plainly: Total cellular uptake in αvβ3-negative cells. As to conditions: 12.5-100 nM. It is filed as cell-based.
From the text: (§2) Results represent means and standard errors of triplicate determinations and are expressed as RFUs per microgram cell protein.
as §1

For data set [7], the system named is αvβ3. Put plainly: Cell surface αvβ3 level by immunostaining and flow cytometry. It is filed as cell-based, human. The following applies: 200 nM, 24 h exposure. Here is the method:
Then, αvβ3 levels were determined by immunostaining with anti-αvβ3 antibody. […] The y axis of each panel indicates the number of cells, while the x axis indicates the log of fluorescence intensity.
as §1

For data set [8], the system named is A375SM-Luc705-B cells. Kind of data set: Short-term toxicity, viable cell count after 48 h (peptide conjugate). It is filed as cell-based. Here is the method: Toxicity Studies: Cells were treated with various concentrations of oligonucleotides or conjugates under the same conditions as used for the luciferase induction experiments. After 48 h in medium plus 1% FBS, cells were trypsinized and viable cells were counted in an electronic particle counter.

Data set [9] deals with αvβ3-positive M21+ human melanoma cells. Put plainly: Total cellular uptake in αvβ3-positive cells. It counts as cell-based. The following applies: 12.5-100 nM.
From the text: as §2, §1

A short description of data set [10]: Re-dissolution of lyophilized conjugate in sterile water. It counts as physicochemical. As to conditions: after dialysis and lyophilization. From the text: The peptide conjugation reaction occurred between the maleimide of the bicyclic RGD peptide and the 5′ thiol (—SH) of the oligonucleotide (2). The reaction proceeded efficiently and more than 95% of the starting oligonucleotide (2) was converted into conjugates with bicyclic RGD. The conjugates were purified by ion-exchange chromatography (Resource™ Q column, GE Healthcare, Chalfont St. Giles, United Kingdom) under highly denaturing conditions to avoid any sort of precipitation, although this was not expected to be a problem for this type of peptide. […] Similar approaches were used for the preparation of other oligonucleotides and conjugates. In each case the structure of the final product was confirmed by MALDI-TOF mass spectroscopy.

The mark [11] stands for this setting: listed as RGD-623-Tamra conjugate.

“Also recorded” adds a separate entry of the source.

For the molecule “5′-GTAATTATTTATAATCGTCC-Tamra-3′ [5MM623-Tamra]”, the luciferase expression result in [1] was “failed to produce an increase in luciferase expression”.

On to “5′-GTTATTCTTTAGAATGGTGC-3′ (antisense GTTATTCTTTAGAATGGTGC; all 2'-O-methyl, all phosphorothioate, T or U not given here; further chemistry not fully specified) [compound 623]”, for which the luciferase activity result in [2] (25-200 nM, 72 h) is recorded as “did not cause a significant increase in luciferase activity”. The “influence of the Tamra fluorophore on the action of 623” value is “did not affect the action of 623” in [1] (RGD conjugate or lipofection, concentrations up to 75 nM) and “slight augmentation of effect by Tamra” in data set [1] (concentrations above 100 nM).

`CC(C)[C@@H]1NC(=O)[C@@H](Cc2ccccc2)NC(=O)[C@H](CC(=O)O)NC(=O)CNC(=O)[C@H](CCCN=C(N)N)NC1=O` [RGDfV]: the “effect of co-incubation on cell associated fluorescence of RGD-623-Tamra conjugate” value in [3] (data not shown) was “substantially reduced total cell associated fluorescence”. The “effect on cellular accumulation of RPA-623-Tamra” value (from here on “effect on cellular accumulation”) in data set [4] is given as “inhibited”. In addition, the “toxicity of the blocking peptide” value in data set [2] (at the concentrations used) is on record as “does not cause cell detachment or other obvious toxicity”. The “effect on the ability of the RPA-623 conjugate to activate luciferase” value in data set [2] (excess peptide (0.1-10 μM) 30 min prior to 100 nM conjugate, 48 h) is “completely blocks”. Besides, the “effect of co-incubation on the increased uptake of the RGD-conjugate” value in [5] (excess peptide) is given as “could be blocked”. The “inhibition of the effect of RGD-623-Tamra on luciferase expression” value in data set [1] (0.1-100 μM peptide 30 min prior to 200 nM conjugate, 48 h) is on record as “progressive inhibition”.

Turning to `C=C1[C@@H](C)[C@H]2[C@H](Cc3ccccc3)NC(=O)[C@]23[C@H](OC(C)=O)/C=C/[C@@](C)(O)C(=O)[C@@H](C)C/C=C/[C@H]3[C@@H]1O` [cytochalasin D], the “effect on cellular accumulation” value in data set [4] was “inhibited”. Further, in data set [5], the cell viability result is listed as “No loss of cell viability was detected” and the “effect on uptake of the RGD-oligonucleotide conjugate” value is recorded as “block the uptake”. Besides, the cell morphology entry in [5] (highest concentration) is on record as “caused some cell rounding”.

`OC[C@H]1O[C@@H]2O[C@H]3[C@H](O)[C@@H](O)[C@@H](O[C@H]4[C@H](O)[C@@H](O)[C@@H](O[C@H]5[C@H](O)[C@@H](O)[C@@H](O[C@H]6[C@H](O)[C@@H](O)[C@@H](O[C@H]7[C@H](O)[C@@H](O)[C@@H](O[C@H]8[C@H](O)[C@@H](O)[C@@H](O[C@H]1[C@H](O)[C@H]2O)O[C@@H]8CO)O[C@@H]7CO)O[C@@H]6CO)O[C@@H]5CO)O[C@@H]4CO)O[C@@H]3CO` [β-cyclodextrin]: the “effect on cellular accumulation” value in [4] is given as “inhibited”. Besides, in [5], the cell viability entry is on record as “No loss of cell viability was detected” and the “effect on uptake of the RGD-oligonucleotide conjugate” value is “block the uptake”.

For Bivalent-RGD-Mal-S—(CH2)6-5MM623-Tamra, the luciferase expression result in data set [1] is “failed to produce an increase in luciferase expression”.

Turning to “BivalentRGD-Mal-S—(CH2)6-623-Tamra [RGD-623-Tamra]”, in data set [3], the co-localization with dextran entry is given as “Substantial overlap”, the co-localization with transferrin result is recorded as “no overlap” and the “co-localization with transferrin or dextran markers” value is on record as “Substantial overlap”. In addition, in data set [3] (setting [11]), the co-localization with dextran result is on record as “significant co-localization”, the co-localization with transferrin result was “no co-localization” and the “co-localization with transferrin or dextran markers” value is “substantial co-localization”. Also, the “co-localization with caveolin-1” value in data set [3] (between 2 and 6 h, fixed permeabilized cells, 50 nM) is listed as “significant co-localization”. The “co-localization with αvβ3” value in data set [3] (early (6 h), fixed cells, 50 nM) is recorded as “Early co-localization”. Moreover, in data set [3] (fixed cells), the “co-localization with other markers (EAA1, LAMP1, clathrin)” value is reported as “No significant co-localization”. In addition, the “co-localization with trans-Golgi marker TG230” value in data set [3] (late (24 h), fixed cells, 50 nM) was “some co-loacalization”. In addition, in [3] (living cells, 200 nM, complex 100 nM), the “cellular uptake seen by confocal microscopy” value is reported as “substantial cellular uptake was observed”. The nuclear fluorescence entry in data set [3] (living cells, 200 nM, complex 100 nM, listed as RGD-623-Tamra conjugate) was “no readily observable nuclear fluorescence; also recorded: generally free of fluorescence”. Further, the “uptake in M21− cells as compared to 623-Tamra control” value in [6] is “slightly greater uptake”. Moreover, the “level of surface αvβ3 expression” value in [7] was “no effect”. The “level of surface αvβ3 expression” value in data set [7] (listed as RGD-623 conjugate) is recorded as “lack of down-regulation of αvβ3”. Besides, the tolerability by cells result in data set [8] (concentration range needed for splice correction) is “well-tolerated by cells”. In addition, the “short-term toxicity (viable cells)” value in data set [8] (concentrations up to 1000 nM, 48 h) was “little effect”. In [8] (higher concentrations), the cell loss entry is on record as “did not result in significant cell loss” and the cell rounding entry was “Some cell rounding was observed”. Also, the “uptake by M21+ cells as compared to M21− cells” value in [9] was “about 3 times”. Also, the “total cellular uptake compared to unconjugated oligonucleotide” value in data set [5] (12.5, 50 or 100 nM, 4 h) is on record as ~2 fold. Besides, in data set [1], the “concentration dependence of the luciferase effect” value was “rises rapidly between zero and 100 nM and then begins to plateau”; the luciferase expression entry is “produced a significant increase in luciferase expression”. Further, the “time of maximum effect on luciferase expression” value in [1] (200 nM, 48 h after removal of the oligonucleotide) came out at 72 h. Moreover, in [1] (24-120 h, conjugate 200 nM, complex 100 nM), the “time course of the effect on luciferase expression” value is on record as “rose gradually with time”. In data set [1] (48 h), the “concentration at which substantial effects on luciferase were observed” value is listed as 50 nM and the “low concentration at which significant effects were still observed” value came out at 5 nM. For the same molecule, the “effect on luciferase relative to 623/cationic lipid complex” value in data set [1] (higher concentrations of RGD-623, complex at 100 nM oligonucleotide) is “approximately 50%”. In addition, the “re-dissolution in sterile water” value in data set [10] is reported as “re-dissolved in sterile water without any difficulty”.
